Source: patent US6268181A, “Methods for producing a potentiator of Bacillus pesticidal activity” (Valent BioSciences, Corporation, priority 1998, dated 2001)

Experiments:
Pseudoplusia includens = experiment: Diet incorporation bioassay, third instar Pseudoplusia includens; type: in vivo; conditions: BIOBIT HPWP
Description: (§1) B.t.k. activity is determined by an artificial diet incorporation bioassay using third instar Spodoptera exigua larvae, second instar Helicoverpa zea larvae, third instar Spodoptera frugiperda larvae, second instar Heliothis virescens larvae, third instar Trichoplusia ni larvae, third instar Pseudoplusia includens larvae, third instar Plutella xylostella larvae, third instar Spodoptera littoralis, and third instar Mamestra brassicae larvae.
(§2) To determine the level of potentiation by adding Ia to B.t. products, and establish the range of insects that are affected, diet incorporation bioassays are performed. In the experiments with high concentrations of Ia against Spodoptera exigua (7.4-23.7 g Ia/BIU), purified Ia (70% active ingredient, 30% acetate counter ion) is used to potentiate BIOBIT™ FC (FC represents flowable concentrate). […] S. littoralis and M. brassicae are tested using FLORBAC™ HPWP and Ia.
(§3) The various B.t. products are weighed and Ia is added to give 0.1 to 237 g Ia/BIU. The volume is adjusted with 0.1% Tween™. The samples are sonicated for 1 minute and then diluted to final volume. Neat samples (without Ia) and reference substances are prepared as well. Reference substances include B.t.k.
(§4) Standard artificial diet composed of water, agar, sugar, casein, wheat germ, methyl paraben, sorbic acid, linseed oil, cellulose, salts, and vitamins are prepared in a 20 L heated kettle. This provides enough diet to test 10 to 12 samples with seven different concentrations of each test substance. The B.t. solutions are serially diluted to give 16 ml aliquots. Each aliquot is added to 184 g of molten diet. The mixture is subsequently homogenized and then poured into a plastic tray bearing 40 individual cells. Three control trays are prepared for each batch of diet. Once the diet has cooled and solidified, one insect of a known age (2-3 instar) is added to each cell, and the trays are covered with a perforated sheet of clear mylar. The trays are placed on racks and incubated for four days at 28° C. and 65% relative humidity.
(§5) After four days, insect mortality is rated. […] Percent mortality is calculated and the data is analyzed via parallel probit analysis. LC50 s, LC90 s, the slope of the regression lines, coefficient of variation, and potencies are estimated. Samples are run a minimum of 3 times or until three potencies are within 20% of a calculated mean for each sample. To calculate the increase in activity associated with each concentration of Ia, the LC50 of the B.t./Ia sample is corrected to reflect the amount of B.t. in the sample. The Lc50 s of the paired neat samples are divided by the corrected LC50 values to give the fold reduction in LC50 associated with Ia.

Plutella xylostella = experiment: Diet incorporation bioassay, third instar Plutella xylostella; type: in vivo; conditions: BIOBIT HPWP
Description: as §1, §2, §3, §4, §5

Lobesia bothrana = Lobesia bothrana assay (larvae drinking dilution, grape berries); type: in vivo; conditions: BIOBIT HPWP, 2.0 g Ia per BIU
Description: The following procedure is used to assay for Lobesia bothrana. Vine grapes attacked by Lobesia bothrana are collected in an unsprayed field and larva is removed. A dilution series of Ia (250 μg/ml, 500 μg/ml, and 1000 μg/ml) is made in water. One larva is put in the middle of the petri dish. If the larva is observed to drink, it is moved into a petri dish with freshly cut grape berries. The larvae are stored at 22° C. for 3-4 days.

[1] = Stability of Ia determined by bioassay; type: physicochemical
Description: (§6) Activity is monitored by a Spodoptera exigua micro-bioassay, and purity is determined by capillary electrophoresis. Sample consisting of 50 μl of Ia and 50 μl of CryIA(c) protein (15 μg/ml) purified from BIOBIT™ FC (100 μl), is applied to individual wells of a jelly tray containing 500 μl of solidified artificial insect diet. The trays containing the various samples are air dried. Two to four 2nd or early 3rd instar Spodoptera exigua are added to the wells containing the dried sample. The wells are sealed with mylar poked with holes and are incubated for 2-3 days at 30° C. Degree of stunting and percent mortality are then recorded. Typically, 5 replicate wells are run for each sample.
Further, it is stable when subjected to direct sunlight for at least 10 hours. Ia is stable at pH 2 for 3 days, but unstable at pH 12.

Spodoptera frugiperda = experiment: Diet incorporation bioassay, third instar Spodoptera frugiperda; type: in vivo; conditions: BIOBIT HPWP
Description: as §1, §2, §3, §4, §5

Heliothis virescens = experiment: Diet incorporation bioassay, second instar Heliothis virescens; type: in vivo; conditions: BIOBIT HPWP, 3.2 g Ia per BIU
Description: as §1, §2
as §3, with “B.t.k. […]” for “B.t.k.”
(§7) After four days, insect mortality is rated. […] Percent mortality is calculated and the data is analyzed via parallel probit analysis. […]

Spodoptera exigua [2] = experiment: Spodoptera exigua micro-bioassay (potentiation of Bt Cry protein by Ia); type: in vivo
Description: as §6, with “Sample consisting of 50 μl of Ia and 50 μl of CryIA(c) protein (15 μg/ml) purified from BIOBIT™ FC (100 μl), is applied to individual wells of a jelly tray containing 500 μl of solidified artificial insect diet.” left out
*Mortality = # insects dead/# total insects after 2 days
.dagger.Stunt score is defined by the average size of the live insect
larvae at the end of the bioassay: 4.0 = untreated control, 3.0 = 75% size
of untreated control, 2.0 = 50% size of untreated control, 1.0 = 25% size
of untreated control, 0.0 = no growth or size unchanged from start of […]

Helicoverpa zea = experiment: Diet incorporation bioassay, second instar Helicoverpa zea; type: in vivo; conditions: BIOBIT HPWP, 3.2 g Ia per BIU
Description: as §1, §2
as §3, with “B.t.k. […]” for “B.t.k.”
as §7

[3] = Solubility of the active compound; type: physicochemical
Spodoptera littoralis = experiment: Diet incorporation bioassay, third instar Spodoptera littoralis; type: in vivo; conditions: FLORBAC HPWP, 2.0 g Ia per BIU
Description: as §1, §2
as §3, with “B.t.k. […]” for “B.t.k.”
as §7

Spodoptera exigua [4] = experiment: Diet incorporation bioassay, third instar Spodoptera exigua; type: in vivo
Description: as §1, §2, §3, §4, §5
The potentiation of various produces on Spodoptera exigua by Ia is determined using diet incorporation bioassays described supra. Ia/B.t. product mixture is incorporated into an agar-based wheat germ casein diet. The insects are placed on the diet for four days and held at 28° C. Mortality is recorded and analyzed using probit analysis. LC50, LC90 and potency are calculated from matched product lacking Ia. The results shown in Table V indicate that Ia potentiate various B.t.k. and B.t.a. products obtained from various sources. The B.t. strains contained in these products are described in Section 5.2., supra.

Trichoplusia ni = experiment: Diet incorporation bioassay, third instar Trichoplusia ni; type: in vivo; conditions: BIOBIT HPWP
Description: as §1, §2, §3, §4, §5

Mamestra brassicae = experiment: Diet incorporation bioassay, third instar Mamestra brassicae; type: in vivo; conditions: FLORBAC HPWP, 2.0 g Ia per BIU
Description: as §1, §2
as §3, with “B.t.k. […]” for “B.t.k.”
as §7

NC(=O)NCC(NC(=O)C(O)C(O)C(N)C(O)CC(O)C(N)CO)C(N)=O (centres unmarked) [Ia]
Increase in activity, Fold reduction in LC50 (Pseudoplusia includens; 0.1 g Ia per BIU): 0 Fold | Increase in activity, Fold reduction in LC50 (Pseudoplusia includens; 0.2 g Ia per BIU): 1.2 Fold | Increase in activity, Fold reduction in LC50 (Pseudoplusia includens; 0.8 g Ia per BIU): 2.1 Fold | Increase in activity, Fold reduction in LC50 (Pseudoplusia includens; 2.0 g Ia per BIU): 2.4 Fold | Increase in activity, Fold reduction in LC50 (Pseudoplusia includens; 4.0 g Ia per BIU): 3.4 Fold | Increase in activity, Fold reduction in LC50 (Plutella xylostella; 0.2 g Ia per BIU): 1.6 Fold | Increase in activity, Fold reduction in LC50 (Plutella xylostella; 0.8 g Ia per BIU): 1.3 Fold | Increase in activity, Fold reduction in LC50 (Plutella xylostella; 2.0 g Ia per BIU): 1.4 Fold | Increase in activity, Fold reduction in LC50 (Plutella xylostella; 4.0 g Ia per BIU): 1.9 Fold | Increase in activity, Fold reduction in LC50 (Lobesia bothrana): 3.0 Fold | stability ([1]; autoclaving (>190C)): loses all activity | stability ([1]; boiling for 5 minutes): stable | stability ([1]; direct sunlight for at least 10 hours): stable | stability ([1]; exposed to periodic acid or concentrated HCl): lose all activity | stability ([1]; pH 2 for 3 days): stable | stability ([1]; pH 12): unstable | Increase in activity, Fold reduction in LC50 (Spodoptera frugiperda; 0.2 g Ia per BIU): 2.2 Fold | Increase in activity, Fold reduction in LC50 (Spodoptera frugiperda; 0.8 g Ia per BIU): 3.9 Fold | Increase in activity, Fold reduction in LC50 (Spodoptera frugiperda; 2.0 g Ia per BIU): 7.2 Fold | Increase in activity, Fold reduction in LC50 (Spodoptera frugiperda; 4.0 g Ia per BIU): 11.6 Fold | Increase in activity, Fold reduction in LC50 (Heliothis virescens): 4.2 Fold | potentiation of crystal delta-endotoxin (Spodoptera exigua [2]; Bacillus thuringiensis subsp. kurstaki and aizawai crystal delta-endotoxin proteins): potentiate the activity | level of potentiation (Spodoptera exigua [2]; CryIC inclusions): 250 fold | potentiation of pesticidal activity (Spodoptera exigua [2]; CryII and CryIC inclusions): also potentiated | potentiation (Spodoptera exigua [2]; CryII inclusions): 125 fold | Mortality (Spodoptera exigua [2]; Ia alone, no Bt protein, after 2 days): 0/5 | Stunt Score (Spodoptera exigua [2]; Ia alone, no Bt protein, 4.0 = untreated control, 0.0 = no growth): 4.0 | potentiation of pesticidal activity (Spodoptera exigua [2]; formulated B.t.k., isolated crystals, full-length or truncated CryIA proteins): all potentiated | level of potentiation (Spodoptera exigua [2]; full-length CryIA(c)): approximately 320 fold | potentiation of pesticidal activity (Spodoptera exigua [2]; individual truncated CryIA(a), (b), and (c) proteins): potentiate the activity | level of potentiation (Spodoptera exigua [2]; truncated CryIA proteins, CryII and CryIC inclusions): 100-200 fold | activity of Ia alone (Spodoptera exigua [2]; without Cry protein): inactive alone | Increase in activity, Fold reduction in LC50 (Helicoverpa zea): 12.6 Fold | solubility in organic solvents ([3]; organic solvents): not soluble in organic solvents | water solubility ([3]; water): water soluble | Increase in activity, Fold reduction in LC50 (Spodoptera littoralis): 8.6 Fold | Increase in activity, Fold reduction in LC50 (Spodoptera exigua [4]; BIOBIT FC, 7.4 g Ia per BIU, purified Ia): 13 Fold | Increase in activity, Fold reduction in LC50 (Spodoptera exigua [4]; BIOBIT FC, 15 g Ia per BIU, purified Ia): 26 Fold | Increase in activity, Fold reduction in LC50 (Spodoptera exigua [4]; BIOBIT FC, 30 g Ia per BIU, purified Ia): 34 Fold | Increase in activity, Fold reduction in LC50 (Spodoptera exigua [4]; BIOBIT FC, 118 g Ia per BIU, purified Ia): 59 Fold | Increase in activity, Fold reduction in LC50 (Spodoptera exigua [4]; BIOBIT FC, 237 g Ia per BIU, purified Ia): 79 Fold | Increase in activity, Fold reduction in LC50 (Spodoptera exigua [4]; BIOBIT HPWP, 0.1 g Ia per BIU): 1.5 Fold | Increase in activity, Fold reduction in LC50 (Spodoptera exigua [4]; BIOBIT HPWP, 0.2 g Ia per BIU): 1.7 Fold | Increase in activity, Fold reduction in LC50 (Spodoptera exigua [4]; BIOBIT HPWP, 2.0 g Ia per BIU): 4.3 Fold | Increase in activity, Fold reduction in LC50 (Spodoptera exigua [4]; BIOBIT HPWP, 4.0 g Ia per BIU): 7.5 Fold | Increase in activity, Fold reduction in LC50 (Trichoplusia ni; 0.1 g Ia per BIU): 1.1 Fold | Increase in activity, Fold reduction in LC50 (Trichoplusia ni; 0.2 g Ia per BIU): 1.2 Fold | Increase in activity, Fold reduction in LC50 (Trichoplusia ni; 2.0 g Ia per BIU): 2.0 Fold | Increase in activity, Fold reduction in LC50 (Trichoplusia ni; 4.0 g Ia per BIU): 3.1 Fold | Increase in activity, Fold reduction in LC50 (Mamestra brassicae): 4.9 Fold
